Assay results published in the supplement of paper PMC10307832.

Legend:
Experiment in all cases: relative viability (nuclei count vs DMSO), 5 days (fraction); higher = more cells survive
BMX-IN-1 + Decitabine = compound: C=CC(=O)Nc1cc(-n2c(=O)ccc3cnc4ccc(-c5ccc(NS(C)(=O)=O)cc5)cc4c32)ccc1C [BMX-IN-1] + Nc1ncn([C@H]2C[C@H](O)[C@@H](CO)O2)c(=O)n1 [Decitabine] (partner 2 µM)
How it was run: (§1)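 For relative viability, nuclei counts in treated wells were divided by those in vehicle wells. Lung cancer cell lines had been pin-tool dosed in 1536-well plates the day after seeding and cultured for 5 days, then fixed and stained in one step (final 0.05% Triton X-100, 1% formaldehyde, 1 ug/ml Hoechst) and imaged at 4×. Doses were one drug alone or a fixed anchor-drug dose plus five library-drug doses (not always all listed) in √10 steps, and values are duplicate-plate medians.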

PAC-1 + Foretinib = compound: C=CCc1cccc(/C=N/NC(=O)CN2CCN(Cc3ccccc3)CC2)c1O [PAC-1] + COc1cc2c(Oc3ccc(NC(=O)C4(C(=O)Nc5ccc(F)cc5)CC4)cc3F)ccnc2cc1OCCCN1CCOCC1 [Foretinib] (partner 0.25 µM)
How it was run: as §1

Ibrutinib + Decitabine = compound: C=CC(=O)N1CCC[C@@H](n2nc(-c3ccc(Oc4ccccc4)cc3)c3c(N)ncnc32)C1 [Ibrutinib] + Nc1ncn([C@H]2C[C@H](O)[C@@H](CO)O2)c(=O)n1 [Decitabine] (partner 2 µM)
How it was run: as §1

Ibrutinib + OSI-027 = compound: C=CC(=O)N1CCC[C@@H](n2nc(-c3ccc(Oc4ccccc4)cc3)c3c(N)ncnc32)C1 [Ibrutinib] + COc1cccc2cc(-c3nc([C@H]4CC[C@H](C(=O)O)CC4)n4ncnc(N)c34)[nH]c12 [OSI-027] (partner 0.5 µM)
How it was run: as §1

Cell Line	relative viability (BMX-IN-1 + Decitabine; first compound 0.02 µM)	relative viability (BMX-IN-1 + Decitabine; first compound 0.2 µM)	relative viability (BMX-IN-1 + Decitabine; first compound 0.6325 µM)	relative viability (BMX-IN-1 + Decitabine; first compound 2 µM)	relative viability (PAC-1 + Foretinib; first compound 0.02 µM)	relative viability (PAC-1 + Foretinib; first compound 0.06325 µM)	relative viability (PAC-1 + Foretinib; first compound 0.2 µM)	relative viability (PAC-1 + Foretinib; first compound 2 µM)	relative viability (Ibrutinib + Decitabine; first compound 0.005 µM)	relative viability (Ibrutinib + Decitabine; first compound 0.01581 µM)	relative viability (Ibrutinib + Decitabine; first compound 0.05 µM)	relative viability (Ibrutinib + Decitabine; first compound 0.1581 µM)	relative viability (Ibrutinib + Decitabine; first compound 0.5 µM)	relative viability (Ibrutinib + OSI-027; first compound 0.005 µM)	relative viability (Ibrutinib + OSI-027; first compound 0.01581 µM)	relative viability (Ibrutinib + OSI-027; first compound 0.05 µM)	relative viability (Ibrutinib + OSI-027; first compound 0.1581 µM)	relative viability (Ibrutinib + OSI-027; first compound 0.5 µM)
LCLC-97TM1	0.259	0.224	0.208	0.264	0.989	1	0.945	0.955	0.251	0.226	0.236	0.205	0.208	0.586	0.425	0.558	0.487	0.483
NCI-H2023	0.236	0.247	0.223	0.295	0.824	0.789	0.911	0.773	0.245	0.234	0.249	0.208	0.23	0.28	0.315	0.349	0.504	0.375
LC-2-ad	0.836	0.938	0.889	0.733	0.968	0.875	0.887	0.954	0.842	0.776	0.774	0.814	0.765	0.741	0.746	0.797	0.792	0.752
NCI-H1975	0.362	0.345	0.42	0.417	0.933	0.947	1.01	0.932	0.414	0.354	0.379	0.373	0.177	0.681	0.624	0.498	0.692	0.357
NCI-H1793	0.45	0.535	0.471	0.589	0.651	0.504	0.646	0.559	0.478	0.485	0.432	0.502	0.366		0.238	0.243	0.207	0.219
Calu-6					0.883	0.89	0.952	0.944										
HCC-366	0.356	0.378	0.416	0.39	0.903	0.925	0.899	0.989	0.422	0.305	0.314	0.346	0.326	0.803	0.84	0.934	0.802	0.96
NCI-H2347	0.647	0.678	0.608	0.75	0.786	0.771	0.601	1.3	0.65	0.609	0.658	0.575	0.535		0.383	0.374	0.302	0.57
NCI-H2405	0.702	0.723	0.851	0.716	1.04	1.04	1.02	1.1	0.622	0.715			0.682	0.54	0.627	0.63	0.662	0.638
HCC-44	0.988	0.969	1.01	0.981					1	0.96	1	0.976	0.988	0.44	0.517	0.585		0.669
NCI-H1563					0.928	1	0.976	0.935						0.753	0.71	0.694	0.825	0.766
NCI-H1666	0.673	0.746	0.839	0.716	0.975	0.979	0.995	0.95	0.569	0.782	0.666	0.663	0.632	0.89	0.747	0.737	0.847	0.621
NCI-H650	0.321	0.303	0.318	0.346	1.08	1.07	0.992	0.988	0.384	0.325	0.335	0.37	0.319	0.515	0.481	0.518	0.621	0.539
EPLC-272H	0.29	0.397	0.407	0.355	0.605	0.683	0.68	0.721		0.318	0.327	0.381	0.275	0.246	0.255	0.219	0.242	0.208
LXF-289	0.388	0.338	0.374	0.41	0.907	1.02	1	0.934	0.357	0.295	0.381	0.38	0.342	0.762	0.722	0.771	0.702	0.695
LOU-NH91		0.799	0.842	0.828	0.919	0.931	0.982	0.898	0.786	0.745	0.762	0.807	0.648	0.586	0.617	0.555	0.659	0.448
LCLC-103H	0.795	0.782	0.714	0.689	0.734	0.785	0.713	0.689	0.685	0.705	0.754	0.759	0.725	0.459	0.409	0.485	0.393	0.485
IA-LM					1.17	1.19	1.11	1.17										
NCI-H1299					1.14	1.04	1.04	1.06										
NCI-H1648	0.511	0.467	0.616	0.506					0.509	0.434	0.518	0.433	0.364	0.243	0.288	0.278	0.256	0.306
NCI-H1703					0.359	0.434	0.337	0.309										
NCI-H1623					0.86	0.851	0.961	0.868						0.42	0.403	0.32	0.42	0.313
NCI-H1792	0.539	0.615	0.525	0.568						0.584	0.558	0.591	0.441		0.712	0.677		0.808
